Assays:
[1] = test system: bFGF-stimulated human umbilical vascular EC (HUVEC); assay: EC proliferation measurement, [3H]-thymidine incorporation assay; format: cell-based; conditions: for IC50: bFGF-stimulated (10 ng/ml) HUVEC, 3H-thymidine incorporation, 3 days; for EC Proliferation % Inhibition at 25 μM: bFGF-stimulated HUVEC
Description: Human umbilical vein derived EC (HUVEC) were harvested from normal human umbilical cords by perfusion with 0.125% trypsin/EDTA. Harvested HUVECs were cultured in gelatin coated tissue culture flasks and subcultured 1:3 once a week in culture medium (RPMI-1640 with 20% human serum (HS), supplemented with 2 mM glutamine and 100 U/ml penicillin and 0.1 mg/ml streptomycin). Bovine capillary EC (BCE) were kindly provided by Dr. M. Furie (State University of New York, Stony Brook, USA) and were cultured in fibronectin coated tissue culture flasks in RPMI-1640 medium containing 10% FCS, glutamine and antibiotics.
EC proliferation was measured using a [^3H]-thymidine incorporation assay. Proliferation of bFGF-stimulated (10 nanogram per milliliter (ng/ml)) human umbilical vascular EC (HUVEC) cultures was measured by quantification of ^3H-thymidine incorporation. Proliferation is expressed as mean counts per minute (cpm) of quadruplicate cultures in three independent experiments (±SEM). EC were seeded at 5000 cells/well in flat-bottomed tissue culture plates and grown for 3 days in the absence or presence of regulators, in culture medium. During the last 6 hours of the assay, the culture was pulsed with 0.5 μCi [methyl-^3H]-thymidine/well. Human umbilical vein derived EC (HUVEC) were harvested from normal human umbilical cords by perfusion with 0.125% trypsin/EDTA. Harvested HUVECs were cultured in gelatin coated tissue culture flasks and subcultured 1:3 once a week in culture medium (RPMI-1640 with 20% human serum (HS), supplemented with 2 mM glutamine and 100 U/ml penicillin and 0.1 mg/ml streptomycin).

[2] = test system: bovine EC (BCE); assay: In vitro angiogenesis assay, collagen gel-based sprout formation; format: cell-based; parameters: key to % Sprouting: —: No effect on the assay; conditions: for % Sprouting: BCE on cytodex-3 beads in collagen gel, 20 ng/mL bFGF, 24 hours, * = significant inhibition (p < 0.03); for Sprouting in collagen gel-based sprout formation assay: versus control showing numerous sprouts, data not shown
Description: Sprouting and tube formation of bovine EC (BCE) were studied using cytodex-3 beads overgrown with BCE in a 3-dimensional collagen gel (vitrogen-100, Collagen Corp., Fremont, Calif., USA) as described in D. Van der Schaft et al., Blood, 96,176-181 (2000). Following gelation, culture medium containing 20 ng/mL bFGF, with or without […] or DBF analogs, was applied on top of the gel. After 24 hours of cell culture at 37° C., photographs were made (not shown). The amount of sprouting in each well (i.e., the total length of the sprouts) was quantified by the computer program NIH image. To quantify differences in sprouting and tube formation, statistical analysis was performed using the Mann-Whitney U test.

[3] = test system: MA148 human ovarian carcinoma tumors; assay: Immunohistochemistry of tumor sections (CD31 microvessel density, PCNA proliferation, TUNEL apoptosis); format: in vivo, mice; conditions: for Vessel density relative to control: anti-CD31 staining of tumor cross-sections; for End Points (mean number of vessel end points) / Branch Points (mean number of vessel branch points/nodes per image) / Proliferation (PCNA-staining, white pixels per field) / Vessel Density (CD31-staining, white pixels per field) / Vessel Length (mean total vessel length per image): tumors of treated mice, ± standard error; for End Points (mean number of vessel end points): after skeletonization
Description: Immunohistochemistry was used to assess microvessel density and the extent of total cell apoptosis. Tumor tissue was embedded in tissue freezing medium (Miles Inc, Elkart, Ind.) and shock frozen in liquid nitrogen. […] sections of tissue were prepared for immunohistochemical analysis. For this, tissue sections were brought to room temperature, air dried overnight, and then fixed in acetone for 10 minutes. Slides were allowed to air dry for at least 30 minutes and were washed three times for 5 minutes each in phosphate-buffered saline (PBS, pH 7.4). Samples were then blocked with PBS containing 0.1% bovine serum albumin and 3% human serum albumin for at least 30 minutes at room temperature in a humidified box. Samples were subsequently incubated with phycoerytrin (PE)-conjugated monoclonal antibody to CD31 (PECAM-1) in a 1:50 dilution (Pharmigen, San Diego, Calif.) to stain for microvessel density. After 1-hour incubation at room temperature, slides were washed with PBS and immediately imaged using an Olympus BX-60 fluorescence microscope at 200× magnification.
To assess the extent of total cell apoptosis, tissue sections were stained by using the TUNEL (terminal deoxyribonucleotidyl transferase-mediated dUTP-nick-end labeling) assay, which was performed according to the manufacturer's instructions (in situ cell death detection kit, fluorescein; TUNEL, Roche). Digital images were stored and processed using Adobe Photoshop (Adobe Inc., Mountain View Calif.).
Quantification of microvessel density, the rate of proliferation and total cell apoptosis were determined as described earlier (R. Wild et al., Microvasc. Res., 59, 368-376 (2000)). Statistical analysis was performed using the Student's t test.

[4] = test system: MA148 human ovarian carcinoma; assay: MA148 xenograft ovarian carcinoma tumor model in athymic mice, tumor volume; conditions: for Inhibition of tumor growth ten days post-treatment: at sacrifice
Description: In all studies, female athymic nude mice (nu/nu, 5-6 weeks old) were used. These mice were purchased from the National Cancer Institute and allowed to acclimatize to local conditions for at least one week. Animals were given water and standard chow ad libitum, and were kept on a 12-hour light/dark cycle. […] Compounds were diluted in 100 mM SDS and administered using osmotic mini-pumps (Durect, Cupertino, Calif.). Exponentially growing MA148 human ovarian carcinoma cells, kindly provided by Prof. Ramakrishnan (R. P. Dings et al., Cancer Res., 63, 382-385 (2003)) were cultured in RPMI 1640 medium (Life Technologies, Grand Island, N.Y.). This medium was supplemented with 10% fetal bovine serum and 1% penicillin/streptomycin (Cellgro, Mediatech, Washington, D.C.) at 37° C. and 5% CO2. One hundred microliters (100 μL) of this tumor cell suspension (2×10^7 cells/ml) was then injected subcutaneously into the right flank of each mouse. Pumps were implanted into the left flank of mice for subcutaneous administration of compound over a 28-day treatment span.
Two variants of this model were used: prevention and intervention. For the prevention variant, treatment was initiated at the time of inoculation with MA148 cells. For the intervention variant, tumors were allowed to grow to an average size of 50 mm^3 (usually day 7 post inoculation) before treatment was initiated. With either variant, animals were randomized prior to the initiation of treatment. Treatment was administered via osmotic mini-pumps (Durect, Cupertino, Calif.), which were implanted subcutaneously in the left flank of mice. […] In each study, control groups of animals were administered either PBS or PBS containing human serum albumin.
Tumor volume was determined by measuring the diameters of tumors using calipers (Scienceware, Pequannock, N.J.) using the equation for the volume of a spheroid: (a^2×b×π)/6, where ‘a’ is the width and ‘b’ the length of the tumor. Measurements were performed two or three times per week. At the conclusion of an experiment, tumor weights were also taken following excision of the tumors from euthanized animals.

Row | Substance | IC50 [1] [µM] | EC Proliferation % Inhibition at 25 μM [1] [%] | % Sprouting [2] | other results
1 | ANIKLSVQMKL-[DBF]-I [11DBF1] | 23 ± 5 |  |  | 
2 | ANIKLSVQMKL-[DBF]-IIVK [11DBF4] | 35 |  |  | 
3 | ANIKLSVQMKL-[DBF]-IIVKLN [11DBF6] | 22 |  |  | 
4 | ANIKLSVQMKL-[DBF]-IIVKLND [11DBF7] | 12 | 92 | 23 ± 10%* | Sprouting in collagen gel-based sprout formation assay [2]: highly reduced sprouting; Vessel density relative to control [3]: significantly reduced; End Points (mean number of vessel end points) [3]: 21.2 ± 3.3 mean pixel counts per image; Branch Points (mean number of vessel branch points/nodes per image) [3]: 3.1 ± 0.9 mean pixel counts per image; Proliferation (PCNA-staining, white pixels per field) [3]: 553 ± 75 mean pixel counts per image; Vessel Density (CD31-staining, white pixels per field) [3]: 2879 ± 385 mean pixel counts per image; Vessel Length (mean total vessel length per image) [3]: 3.0 ± 0.6 mean pixel counts per image; Inhibition of tumor growth at the end of the four-week administration period (day 35) ([4]; intervention, day 35): about 50%; Inhibition of tumor growth ten days post-treatment ([4]; intervention): about 50%; Reduction of tumor volume relative to control animals ([4]; prevention model: treatment from time of inoculation, subcutaneous mini-pumps, 10 mg/kg/day): up to 90%
5 | IKLSVQMKL-[DBF]-IIVKLND [9DBF7] | 20 | 57 | 76 ± 40%* | 
6 | L-[DBF]-IIVKLND [1DBF7] | > 25 | 0 | — | 
7 | MKL-[DBF]-IIVKLND [3DBF7] | > 25 | 0 | 84 ± 30% | 
8 | NIKLSVQMKL-[DBF]-IIVKLND [10DBF7] | 12 | 69 | 57 ± 17.5%* | 
9 | QMKL-[DBF]-IIVKLND [4DBF7] | 25 | 46 | 99 ± 5% | 
10 | SVQMKL-[DBF]-I [6DBF1] | 76.1 ± 10.9 |  |  | 
11 | SVQMKL-[DBF]-II [6DBF2] | > 25 |  |  | 
12 | SVQMKL-[DBF]-IIV [6DBF3] | > 25 |  |  | 
13 | SVQMKL-[DBF]-IIVK [6DBF4] | > 25 |  |  | 
14 | SVQMKL-[DBF]-IIVKLN [6DBF6] | 42 |  |  | 
15 | SVQMKL-[DBF]-IIVKLND [6DBF7] | 15 | 68 | 60 ± 12%* | Effect on tube formation [2]: significant inhibitory effect on tube formation; Sprouting in collagen gel-based sprout formation assay [2]: highly reduced sprouting; Number of apoptotic tumor cells ([3]; TUNEL, control 311±103): 851±162; Vessel density relative to control [3]: significantly reduced; End Points (mean number of vessel end points) [3]: 21.7 ± 2.6 mean pixel counts per image; Branch Points (mean number of vessel branch points/nodes per image) [3]: 2.3 ± 1.1 mean pixel counts per image; Proliferation (PCNA-staining, white pixels per field) [3]: 501 ± 68 mean pixel counts per image; Vessel Density (CD31-staining, white pixels per field) [3]: 2213 ± 256 mean pixel counts per image; Vessel Length (mean total vessel length per image) [3]: 2.5 ± 0.4 mean pixel counts per image; Inhibition of tumor growth ten days post-treatment ([4]; intervention): about 50%

— patent publication US7339023B2, “Partial peptide mimetics and methods” (Regents of the University of Minnesota, priority 2002, dated 2008)
